EC50 data for 16 molecules are collected here from US9260418B2, “Pyranyl aryl methyl benzoquinolinone M1 receptor positive allosteric modulators” (Merck Sharp & Dohme Corp., priority 2009, dated 2016).

The assay addresses T1, acetylcholine muscarinic M1 receptor (Homo sapiens, UniProt P11229).
T1 construct: expressed in transfected cells; host or cells: CHOnfat cells (CHO), under Geneticin selection; b382 calls them CHOK1/hM1
T1 sequence (P11229 1-460): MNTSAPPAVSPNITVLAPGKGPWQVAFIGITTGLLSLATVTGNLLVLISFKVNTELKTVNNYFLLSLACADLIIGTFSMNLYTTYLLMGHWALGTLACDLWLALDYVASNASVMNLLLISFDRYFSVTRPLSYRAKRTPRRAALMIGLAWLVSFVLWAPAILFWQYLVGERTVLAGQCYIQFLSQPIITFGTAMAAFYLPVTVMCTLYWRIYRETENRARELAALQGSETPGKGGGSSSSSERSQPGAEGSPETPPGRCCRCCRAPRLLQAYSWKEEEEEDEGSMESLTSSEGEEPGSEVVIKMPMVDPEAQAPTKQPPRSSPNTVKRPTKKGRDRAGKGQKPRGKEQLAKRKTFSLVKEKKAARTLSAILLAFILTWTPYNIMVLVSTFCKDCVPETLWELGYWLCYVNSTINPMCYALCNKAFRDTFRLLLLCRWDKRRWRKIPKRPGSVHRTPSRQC
The experiment in a line: muscarinic FLIPR intracellular calcium assay, potentiation of EC20 acetylcholine in CHOnfat/hM1 cells. The class given is cell-based. Particulars: inflection point calculated from FLIPR values, 4 min preincubation, then EC20 acetylcholine (3 nM final), read-out: IP Value. As to the method:
The assay studies the effect of one or several concentrations of test compounds on basal or acetylcholine-stimulated Ca^2+ levels using FLIPR.
Compounds are prepared and subjected to a preincubation period of 4 min. Thereafter, a single EC20 concentration of acetylcholine is added to each well (3 nM final). The intracellular Ca^2+ level of each sample is measured and compared to an acetylcholine control to determine any modulatory activity.
Cells: CHOnfat/hM1, hM2, hM3 or hM4 cells are plated 24 hr before the assay at a density of 18,000 cells/well (100 μL) in a 384 well plate. CHOnfat/hM1 and CHOnfat/hM3 Growth Medium: 90% DMEM (Hi Glucose); 10% HI FBS; 2 mM L-glutamine; 0.1 mM NEAA; Pen-Strep; and 1 mg/ml Geneticin, are added. For M2Gqi5CHOnfat and M4Gqi5CHOnfat cells, an additional 600 ug/ml hygromycin is added.
Equipment: 384 well plate, 120 μL addition plate; 96-well Whatman 2 ml Uniplate Incubator, 37° C., 5% CO2; Skatron EMBLA-384 Plate Washer; Multimek Pipetting System; Genesis Freedom 200 System; Mosquito System; Temo Nanolitre Pipetting System; and FLIPR^384 Fluorometric Imaging Plate Reader System are used.
Buffers. Assay Buffer: Hanks Balanced Salt Solution, with 20 mM Hepes, 2.5 mM Probenecid (Sigma P-8761) first dissolved in 1 N NaOH, 1% Bovine Serum Albumin (Sigma A-9647). Dye Loading Buffer: Assay Buffer plus 1% Fetal Bovine Serum and Fluo-4AM/Pluronic Acid Mixture. 2 mM Fluo-4AM ester stock in DMSO (Molecular Probes F-14202) Concentration of 2 μM in buffer for a final concentration of 1 μM in Assay. 20% Pluronic Acid Solution stock, with concentration of 0.04% in Buffer, 0.02% in Assay.
65 μL of 2 mM Fluo-4AM are mixed with 130 μL of 20% Pluronic Acid. The resulting solution and 650 μL FBS is added to the assay buffer for a total volume of 65 mL. Positive Controls: 4-Br-A23187: 10 mM in DMSO; final concentration 10 μM. Acetylcholine: 10 mM in water, working stock at both 20 μM and 30 μM in assay buffer, final concentration of 10 μM. This is used to check the maximum stimulation of the CHOK1/hM1 cells. 20 μM (2×) acetylcholine is added in the preincubation part of the assay, and the 30 μM (3×) stock is added in the second part. (EC20)Acetylcholine: 10 mM in water, working stock of 9 nM (3×), and final concentration in assay is 3 nM. This is used after the preincubation with test compounds. Addition of the EC20 Acetylcholine to each well with a test compound will ascertain any modulator activity. 24 wells contain 3 nM Acetylcholine alone as a control.
Screening Plate: Compounds are titrated in 96-well plates (columns 2-11), 100% DMSO, started at a concentration of 15 mM (150× stock concentration), and 3-fold serial dilutions using Genesis Freedom200 System. Four 96-well plates are combined into a 384-well plate using Mosquito Nanolitre Pipetting System by transferring 1 μl of serial diluted compounds to each well, and 1 mM acetylcholine (100× stock concentration) were added as a control. Using Temo, 49 μl assay buffer is added to each well of the 384-well plate right before assay.
In a 96-well Whatman 2 ml Uniplate, 9 nM Acetylcholine (3×) is pipetted into wells corresponding to the screening compounds, and into control wells. The 30 μM acetylcholine control (3×) is added into control wells, and the 3× agonist plate is transferred into a 384 well plate.
Cells are washed three times with 100 μL of buffer, leaving 30 μL of buffer in each well. Using Multimek, 30 μL of Dye Loading Buffer is added into each well and incubated at 37° C., 5% CO2 for up to one hr.
After 60 min, the cells are washed three times with 100 μL of buffer, leaving 30 μL of buffer in each well. The cell plate, screening plate, and agonist addition plates are placed on the platform in the FLIPR and the door closed. A signal test to check background fluorescence and basal fluorescence signal is performed. Laser intensity is adjusted if necessary. […]
As to `COC(C)(C)c1ccc(Cc2cc3c(=O)n([C@H]4CCOC[C@@H]4O)cnc3c3ccccc23)cn1` [Example 20, 3-[(3R,4S)-3-Hydroxytetrahydro-2H-pyran-4-yl]-6-{[6-(1-methoxy-1-methylethyl)pyridine-3-yl]methyl}benzo[h]quinazolin-4(3H)-one], the EC50 was 45 nM.
Consider `O=c1c2cc(Cc3ccc(CO)nc3)c3ccccc3c2ncn1[C@H]1CCOC[C@@H]1O` [Example 21, 6-{[6-(Hydroxymethyl)pyridine-3-yl]methyl}-[(3R,4S)-3-hydroxytetrahydro-2H-pyran-4-yl]benzo[h]quinazolin-4(3H)-one], for which the EC50 is 28 nM.
For `O=c1c2cc(Cc3ccc(CF)nc3)c3ccccc3c2ncn1[C@H]1CCOC[C@@H]1O` [Example 22, 6-{[6-(Fluoromethyl)pyridine-3-yl]methyl}-3-[(3R,4S)-3-hydroxytetrahydro-2H-pyran-4-yl]benzo[h]quinazolin-4(3H)-one] the value was 23 nM; for `O=c1c2cc(Cc3ccc(C(F)F)nc3)c3ccccc3c2ncn1[C@H]1CCOC[C@@H]1O` [Example 23, 6-{[6-(Difluoromethyl)pyridine-3-yl]methyl}-3-[(3R,4S)-3-hydroxytetrahydro-2H-pyran-4-yl]benzo[h]quinazolin-4(3H)-one], 14 nM.
Next, `O=c1c2cc(Cc3cc[n+]([O-])c(Cl)c3)c3ccccc3c2ncn1[C@H]1CCOC[C@@H]1O` [Example 24, 6-[(2-Chloro-1-oxidopyridin-4-yl)methyl]-3-[(3R,4S)-3-hydroxytetrahydro-2H-pyran-4-yl]benzo[h]quinazolin-4(3H)-one]: 58 nM; `O=c1c2cc(Cc3ccnc(F)c3)c3ccccc3c2ncn1[C@H]1CCOC[C@@H]1O` [Example 25, 6-[(2-Fluoropyridin-4-yl)methyl]-3-[(3R,4S)-3-hydroxytetrahydro-2H-pyran-4-yl]benzo[h]quinazolin-4(3H)-one]: 15 nM; `COc1cc(Cc2cc3c(=O)n([C@H]4CCOC[C@@H]4O)cnc3c3ccccc23)ccn1` [Example 26, 3-[(3R,4S)-3-Hydroxytetrahydro-2H-pyran-4-yl]-6-[(2-methoxypyridin-4-yl)methyl]benzo[h]quinazolin-4(3H)-one]: 34 nM.
Take `CCOc1ccc(Cc2cc3c(=O)n([C@H]4CCOC[C@@H]4O)cnc3c3ccccc23)cn1` [Example 27, 6-[(6-Ethyoxypyridin-3-yl)methyl]-3-[(3R,4S)-3-hydroxytetrahydro-2H-pyran-4-yl]benzo[h]quinazolin-4(3H)-one]: the EC50 is 27 nM.
Turning to `O=c1c2cc(Cc3ccc(O)nc3)c3ccccc3c2ncn1[C@H]1CCOC[C@@H]1O` [Example 28, 6-[(6-Hydroxypyridin-3-yl)methyl]-3-[(3R,4S)-3-hydroxytetrahydro-2H-pyran-4-yl]benzo[h]quinazolin-4(3H)-one], the EC50 is 27 nM.
Next, `O=c1c2cc(Cc3ccc(OC(F)F)nc3)c3ccccc3c2ncn1[C@H]1CCOC[C@@H]1O` [Example 29, 6-{[6-(Difluoromethoxy)pyridine-3-yl]methyl}-3-[(3R,4S)-3-hydroxytetrahydro-2H-pyran-4-yl]benzo[h]quinazolin-4(3H)-one]: 39 nM.
For `O=c1c2cc(Cc3ccnc(OC(F)F)c3)c3ccccc3c2ncn1[C@H]1CCOC[C@@H]1O` [Example 30, 6-{[2-(Difluoromethoxy)pyridine-4-yl]methyl}-3-[(3R,4S)-3-hydroxytetrahydro-2H-pyran-4-yl]benzo[h]quinazolin-4(3H)-one] the value was 77 nM; for `Cn1cc(Br)c2c(Cc3cc4c(=O)n([C@H]5CCOC[C@@H]5O)cnc4c4ccccc34)ccnc21` [Example 31, 6-[(3-Bromo-1-methyl-1H-pyrrolo[2,3-b]pyridine-4-yl)methyl]-3-[(3R,4S)-3-hydroxytetrahydro-2H-pyran-4-yl]benzo[h]quinazolin-4(3H)-one], 275 nM.
For `CCn1ccc2c(Cc3cc4c(=O)n([C@H]5CCOC[C@@H]5O)cnc4c4ccccc34)ccnc21` [Example 32, 6-[(1-Ethyl-1H-pyrrolo[2,3-b]pyrdin-4-yl)methyl]-3-[(3R,4S)-3-hydroxytetrahydro-2H-pyran-4-yl]benzo[h]quinazolin-4(3H)-one] the value was 32 nM.
In the case of `O=c1c2cc(Cc3ccc(Cl)nc3)c3ccccc3c2ncn1[C@H]1CCSC[C@@H]1O` [Example 33, 6-[(6-Chloropyridin-3-yl)methyl]-3-[(3R,4S)-3-hydroxytetrahydro-2H-thiopyran-4-yl]benzo[h]quinazolin-4(3H)-one], the EC50 is 10 nM.
For `Cc1ccc(-c2ccc(Cc3cc4c(=O)n([C@H]5COCC[C@@H]5O)cnc4c4ccccc34)cn2)cn1` [Example 34, 3-[(3S,4S)-4-Hydroxytetrahydro-2H-pyran-3-yl]-6-[(6′-methyl-2,3-bipyridin-5-yl)methyl]benzo[h]quinazolin-4(3H)-one] the value was 7.1 nM.
For `O=c1c2cc(Cc3ccc(Cl)nc3)c3ccccc3c2ncn1C1CCNCC1` [Example 37, 6-[(6-Chloropyridin-3-yl)methyl]-3-piperidin-4-ylbenzo[h]quinazolin-4(3H)-one] the value was 4800 nM.
